According to patent US9029092B2, “Solution phase homogeneous assays” (Beckman Coulter, Inc., priority 2009, dated 2015):
Where “and” joins values, the source holds several entries; their conditions need not be identical. Identical values can stand only once.

System: biotinylated HRP
Experiment: Model system for selection of SSIA (AK1/streptavidin BSA microparticles + biotinylated HRP)
Format: biochemical, horseradish
Settings: SSIA 100 μM final
Summary of the method: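 Streptavidin/AK1/biotin-BSA M280 microparticles mixed with candidate SSIA (100 μM final) and Btn-HRP at 0, 1, 10, 100 or 250 ng/mL, with unlabeled HRP to 500 ng/mL total HRP. After 30 min at 37° C, trigger solution was added and light intensity recorded on a modified DxI analyzer.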

For O=C1O[C@H]([C@@H](O)CO)C(O)=C1O [Ascorbic Acid], the “light intensity, BTN-HRP0” value (Btn-HRP 0 ng/mL, total HRP 500 ng/mL) was 97 and 151, the S1/S0 (Btn-HRP 1 ng/mL vs 0) was 7.8 and 6.6 and the “light intensity, BTN-HRP1” value (Btn-HRP 1 ng/mL, total HRP 500 ng/mL) was 757 and 995. For the same compound, the S2/S0 (Btn-HRP 10 ng/mL vs 0) was 171.6 and 216.2, the “light intensity, BTN-HRP10” value (Btn-HRP 10 ng/mL, total HRP 500 ng/mL) was 16,641 and 32,568 and the S3/S0 (Btn-HRP 100 ng/mL vs 0) was 38064.9 and 30222.2. The “light intensity, BTN-HRP100” value (Btn-HRP 100 ng/mL, total HRP 500 ng/mL) was 3,692,291 and 4,553,473, the S4/S0 (Btn-HRP 250 ng/mL vs 0) was 62228.3 and 59176.1 and the “light intensity, BTN-HRP250” value (Btn-HRP 250 ng/mL, total HRP 500 ng/mL) was 6,036,145 and 8,915,869. For the same compound, the “effectiveness as SSIA in the model system” value was “demonstrating utility as SSIA”.
